{"source": "patent US20250263405A1", "about": "“HISTONE DEACETYLASE 6 INHIBITOR COMPOUNDS AND USES THEREOF” (VALO HEALTH, INC., priority 2021, published 2025)", "data": [{"target": "HDAC6 (Homo sapiens (Human), UniProt Q9UBN7)", "sequence (Q9UBN7 whole entry)": "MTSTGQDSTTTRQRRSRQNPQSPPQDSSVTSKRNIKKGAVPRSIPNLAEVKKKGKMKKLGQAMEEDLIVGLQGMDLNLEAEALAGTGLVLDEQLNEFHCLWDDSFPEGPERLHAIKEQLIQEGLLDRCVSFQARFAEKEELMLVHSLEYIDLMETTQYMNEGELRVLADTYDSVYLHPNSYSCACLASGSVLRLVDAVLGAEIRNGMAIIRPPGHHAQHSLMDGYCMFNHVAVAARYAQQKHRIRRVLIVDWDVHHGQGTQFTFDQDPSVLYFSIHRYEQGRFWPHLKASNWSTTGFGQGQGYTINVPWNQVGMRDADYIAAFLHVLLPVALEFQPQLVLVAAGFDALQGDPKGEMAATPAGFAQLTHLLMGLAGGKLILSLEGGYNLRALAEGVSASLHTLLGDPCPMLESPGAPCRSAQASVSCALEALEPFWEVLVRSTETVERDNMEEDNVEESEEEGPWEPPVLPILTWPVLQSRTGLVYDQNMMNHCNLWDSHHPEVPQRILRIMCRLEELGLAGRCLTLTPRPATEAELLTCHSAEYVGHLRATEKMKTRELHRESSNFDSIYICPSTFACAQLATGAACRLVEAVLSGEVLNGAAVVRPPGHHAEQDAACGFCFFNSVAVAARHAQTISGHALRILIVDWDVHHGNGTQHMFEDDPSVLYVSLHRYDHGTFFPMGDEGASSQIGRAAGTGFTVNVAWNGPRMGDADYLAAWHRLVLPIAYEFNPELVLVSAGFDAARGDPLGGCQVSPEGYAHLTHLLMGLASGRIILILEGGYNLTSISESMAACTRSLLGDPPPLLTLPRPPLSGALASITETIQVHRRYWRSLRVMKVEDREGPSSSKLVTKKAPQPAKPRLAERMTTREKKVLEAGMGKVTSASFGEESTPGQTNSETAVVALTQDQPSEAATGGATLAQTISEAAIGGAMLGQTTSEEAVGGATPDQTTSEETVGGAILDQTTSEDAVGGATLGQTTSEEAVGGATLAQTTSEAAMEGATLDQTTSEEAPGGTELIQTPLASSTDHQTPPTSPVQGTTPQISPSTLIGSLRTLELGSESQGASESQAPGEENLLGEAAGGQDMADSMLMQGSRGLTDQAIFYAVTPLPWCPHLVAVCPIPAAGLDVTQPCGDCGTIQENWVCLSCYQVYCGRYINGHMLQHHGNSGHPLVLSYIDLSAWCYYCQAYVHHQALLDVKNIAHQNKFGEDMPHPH", "test": "HDAC6 TR-FRET displacement assay", "assay_type": "binding", "conditions": "displacement of fluorescein labeled tracer from HDAC6; 2 nM HDAC6, 1 nM tracer, 0.5 nM Tb-anti-GST antibody; 30 min pre-incubation, 6 hours at 25° C.", "source_text": "HDAC6 and Tb-anti-GST antibody were purchased from Signal Chem (cat #PC124) and Cisbio (cat #61GSTTAH), respectively. HEPES, pH 7.5 was purchased from Teknova (Cat #H1575). All other buffer components, NaCl (cat #S5150), KCl (cat #60121), Triton X-100 (cat #T9284), GSH (cat #G4251), BGG (cat #G5009), and BSA (cat #A2153) were purchased from SIGMA.\nDisplacement of fluorescein labeled tracer 2-(6-hydroxy-3-oxo-3H-xanthen-9-yl)-5-({[5-(4-{[7-(hydroxycarbamoyl)-2H,3H,4H,5H-thieno[2,3-f][1,4]oxazepine-4-carbonyl]amino}phenoxy)pentyl]carbamothioyl}amino)benzoic acid from HDAC6 was measured in vitro using a TR-FRET assay. The assays were performed in 1536-well plates in a total volume of 6 μL in assay buffer consisting of 50 mM HEPES pH 7.5, 50 mM NaCl, 50 mM KCl, 0.01% Triton X-100, 0.5 mM GSH, 0.03% BGG, 0.01% BSA.\nFor concentration response curves (IC50 determination), Compounds were serially diluted 3-fold from 2 mM highest concentration to generate a 10-point concentration gradient. To perform the assay, 30 nL of compound gradient solutions were transferred to the assay plate using the ECHO acoustic dispenser to achieve a final concentration range of 10 μM to 0.000508 uM in 6 μL reaction. 3 μL of HDAC6 in assay buffer were added to the assay plates and pre-incubate at room temp. for 30 mins. After pre-incubation, 3 μL of the tracer and TB-anti-GST antibody mix were added to the assay plates. The final concentrations of HDAC6, tracer, and TB-anti-GST antibody for each assay are 2 nM, 1 nM, and 0.5 nM, respectively. Binding reactions were equilibrated at 25° C. for an additional 6 hours, then read in endpoint mode on the BMG PheraStar (BMG labtech) equipped with a 337-520-490 optical module. The ratio of the 520/490 nm emission was calculated to determine the relative amounts of HDAC6 and tracer complex residue in each well.\nThe percent inhibition of HDAC6 (IC50) was calculated according to the following equation.\nAs set forth in Table 1, “A” indicates an HDAC6 IC50 value of less than 200 nM; “B” indicates an HDAC6 IC50 value of greater than or equal to 200 nM and less than 500 nM; and “C” indicates an HDAC6 IC50 value of greater than or equal to 500 nM and less than 5 μM.", "units": {"IC50": "nM"}, "values": [{"molecule": "CC1(C(=O)N2Cc3ccc(-c4noc(C(F)(F)F)n4)cc3OC[C@@H]2c2ccccc2)CCCOC1", "note": "(single isomer, unassigned) [Compound 13]", "IC50": "< 200"}, {"molecule": "CC1(C(=O)N2Cc3ccc(-c4noc(C(F)(F)F)n4)cc3OC[C@@H]2c2ccccc2)CCCOC1", "note": "(single isomer, unassigned) [Compound 14]", "IC50": "500 to 5000"}, {"molecule": "C[C@H]1COc2cc(-c3noc(C(F)(F)F)n3)cc(F)c2CN1C(=O)C1(C)COC1", "note": "[Compound 1, (S)-(6-fluoro-3-methyl-8-(5-(trifluoromethyl)-1,2,4-oxadiazol-3-yl)-2,3-dihydrobenzo[f][1,4]oxazepin-4(5H)-yl)(3-methyloxetan-3-yl)methanone]", "IC50": "< 200"}, {"molecule": "CC1(C(=O)N2Cc3ccc(-c4nnc(C(F)F)o4)cc3OC[C@@H]2c2ccccc2)CCOCC1", "note": "[Compound 3, (S)-(8-(5-(difluoromethyl)-1,3,4-oxadiazol-2-yl)-3-phenyl-2,3-dihydrobenzo[f][1,4]oxazepin-4(5H)-yl)(4-methyltetrahydro-2H-pyran-4-yl)methanone]", "IC50": "< 200"}, {"molecule": "CC1(C(=O)N2Cc3ccc(-c4noc(C(F)(F)F)n4)cc3OC[C@@H]2c2ccccc2)CCOCC1", "note": "[Compound 4, (S)-(4-methyltetrahydro-2H-pyran-4-yl)(3-phenyl-8-(5-(trifluoromethyl)-1,2,4-oxadiazol-3-yl)-2,3-dihydrobenzo[f][1,4]oxazepin-4(5H)-yl)methanone]", "IC50": "< 200"}, {"molecule": "CC1(C(=O)N2Cc3ccc(-c4noc(C(F)(F)F)n4)cc3OC[C@@H]2c2ccccc2)COC1", "note": "[Compound 5, (3S)-4-[(3-methyloxetan-3-yl)carbonyl]-3-phenyl-8-[5-(trifluoromethyl)-1,2,4-oxadiazol-3-yl]-3,5-dihydro-2H-1,4-benzoxazepine]", "IC50": "< 200"}, {"molecule": "O=C(N1Cc2ccc(-c3noc(C(F)(F)F)n3)cc2OC[C@@H]1c1ccccc1)C(F)(F)F", "note": "[Compound 6, (S)-2,2,2-trifluoro-1-(3-phenyl-8-(5-(trifluoromethyl)-1,2,4-oxadiazol-3-yl)-2,3-dihydrobenzo[f][1,4]oxazepin-4(5H)-yl)ethan-1-one]", "IC50": "500 to 5000"}, {"molecule": "COCC1(C(=O)N2Cc3ccc(-c4noc(C(F)(F)F)n4)cc3OC[C@@H]2c2ccccc2)COC1", "note": "[Compound 7, (3S)-4-{[3-(methoxymethyl)oxetan-3-yl]carbonyl}-3-phenyl-8-[5-(trifluoromethyl)-1,2,4-oxadiazol-3-yl]-3,5-dihydro-2H-1,4-benzoxazepine]", "IC50": "< 200"}, {"molecule": "CC(C)(C)OC(=O)N1Cc2ccc(-c3noc(C(F)(F)F)n3)cc2OC[C@@H]1c1ccccc1", "note": "[Compound 8, tert-butyl (S)-3-phenyl-8-(5-(trifluoromethyl)-1,2,4-oxadiazol-3-yl)-2,3-dihydrobenzo[f][1,4]oxazepine-4(5H)-carboxylate]", "IC50": "500 to 5000"}, {"molecule": "CC(C)(C)C(=O)N1Cc2c(F)cc(-c3noc(C(F)(F)F)n3)cc2OC[C@@H]1c1ccccc1", "note": "[Compound 15, (S)-1-(6-fluoro-3-phenyl-8-(5-(trifluoromethyl)-1,2,4-oxadiazol-3-yl)-2,3-dihydrobenzo[f][1,4]oxazepin-4(5H)-yl)-2,2-dimethylpropan-1-one]", "IC50": "200 to 500"}, {"molecule": "C[C@H]1COc2cc(-c3noc(C(F)(F)F)n3)ccc2CN1C(=O)C1(C)CCOCC1", "note": "[Compound 16, (3S)-3-methyl-4-[(4-methyloxan-4-yl)carbonyl]-8-[5-(trifluoromethyl)-1,2,4-oxadiazol-3-yl]-3,5-dihydro-2H-1,4-benzoxazepine]", "IC50": "< 200"}, {"molecule": "C[C@H]1COc2cc(-c3noc(C(F)(F)F)n3)ccc2CN1C(=O)C(C)(C)C", "note": "[Compound 17, 2,2-dimethyl-1-[(3S)-3-methyl-8-[5-(trifluoromethyl)-1,2,4-oxadiazol-3-yl]-3,5-dihydro-2H-1,4-benzoxazepin-4-yl]propan-1-one]", "IC50": "< 200"}, {"molecule": "C[C@H]1COc2cc(-c3noc(C(F)(F)F)n3)cc(F)c2CN1C(=O)C1(C)CCOCC1", "note": "[Compound 18, (3S)-6-fluoro-3-methyl-4-[(4-methyloxan-4-yl)carbonyl]-8-[5-(trifluoromethyl)-1,2,4-oxadiazol-3-yl]-3,5-dihydro-2H-1,4-benzoxazepine]", "IC50": "< 200"}, {"molecule": "C[C@H]1COc2cc(-c3noc(C(F)(F)F)n3)cc(F)c2CN1C(=O)C(C)(C)C", "note": "[Compound 19, 1-[(3S)-6-fluoro-3-methyl-8-[5-(trifluoromethyl)-1,2,4-oxadiazol-3-yl]-3,5-dihydro-2H-1,4-benzoxazepin-4-yl]-2,2-dimethylpropan-1-one]", "IC50": "< 200"}, {"molecule": "C[C@H]1COc2cc(-c3nnc(C(F)F)o3)ccc2CN1C(=O)C(C)(C)C", "note": "[Compound 20, (S)-1-(8-(5-(difluoromethyl)-1,3,4-oxadiazol-2-yl)-3-methyl-2,3-dihydrobenzo[f][1,4]oxazepin-4(5H)-yl)-2,2-dimethylpropan-1-one]", "IC50": "< 200"}, {"molecule": "CC(C)(C)C(=O)N1Cc2ccc(-c3nnc(C(F)F)o3)cc2OC[C@@H]1c1ccccc1", "note": "[Compound 22, (S)-1-(8-(5-(difluoromethyl)-1,3,4-oxadiazol-2-yl)-3-phenyl-2,3-dihydrobenzo[f][1,4]oxazepin-4(5H)-yl)-2,2-dimethylpropan-1-one]", "IC50": "< 200"}, {"molecule": "CC(C)(C)C(=O)N1Cc2ccc(-c3noc(C(F)(F)F)n3)cc2OC[C@@H]1c1ccccc1", "note": "[Compound 23, 2,2-dimethyl-1-[(3S)-3-phenyl-8-[5-(trifluoromethyl)-1,2,4-oxadiazol-3-yl]-3,5-dihydro-2H-1,4-benzoxazepin-4-yl]propan-1-one]", "IC50": "200 to 500"}, {"molecule": "C[C@H]1COc2cc(-c3noc(C(F)(F)F)n3)cc(F)c2CN1C(=O)C(F)(F)F", "note": "[Compound 24, (S)-2,2,2-trifluoro-1-(6-fluoro-3-methyl-8-(5-(trifluoromethyl)-1,2,4-oxadiazol-3-yl)-2,3-dihydrobenzo[f][1,4]oxazepin-4(5H)-yl)ethan-1-one]", "IC50": "< 200"}, {"molecule": "CC(=O)N1Cc2c(F)cc(-c3noc(C(F)(F)F)n3)cc2OC[C@@H]1C", "note": "[Compound 25, 1-[(3S)-6-fluoro-3-methyl-8-[5-(trifluoromethyl)-1,2,4-oxadiazol-3-yl]-3,5-dihydro-2H-1,4-benzoxazepin-4-yl]ethanone]", "IC50": "200 to 500"}, {"molecule": "COC[C@H]1COc2cc(-c3noc(C(F)(F)F)n3)ccc2CN1C(=O)C1(C)CCOCC1", "note": "[Compound 26, (3S)-3-(methoxymethyl)-4-[(4-methyloxan-4-yl)carbonyl]-8-[5-(trifluoromethyl)-1,2,4-oxadiazol-3-yl]-3,5-dihydro-2H-1,4-benzoxazepine]", "IC50": "< 200"}, {"molecule": "COC[C@H]1COc2cc(-c3noc(C(F)(F)F)n3)ccc2CN1C(=O)C(C)(C)C", "note": "[Compound 27, 1-[(3S)-3-(methoxymethyl)-8-[5-(trifluoromethyl)-1,2,4-oxadiazol-3-yl]-3,5-dihydro-2H-1,4-benzoxazepin-4-yl]-2,2-dimethylpropan-1-one]", "IC50": "< 200"}, {"molecule": "CC1(C(=O)N2CCOc3cc(-c4noc(C(F)(F)F)n4)cc(F)c3C2)CCOCC1", "note": "[Compound 28, 6-fluoro-4-[(4-methyloxan-4-yl)carbonyl]-8-[5-(trifluoromethyl)-1,2,4-oxadiazol-3-yl]-3,5-dihydro-2H-1,4-benzoxazepine]", "IC50": "< 200"}, {"molecule": "CC(C)(C)C(=O)N1CCOc2cc(-c3noc(C(F)(F)F)n3)cc(F)c2C1", "note": "[Compound 29, 1-{6-fluoro-8-[5-(trifluoromethyl)-1,2,4-oxadiazol-3-yl]-3,5-dihydro-2H-1,4-benzoxazepin-4-yl}-2,2-dimethylpropan-1-one]", "IC50": "< 200"}, {"molecule": "COCC1(C(=O)N2Cc3c(F)cc(-c4noc(C(F)(F)F)n4)cc3OC[C@@H]2C)COC1", "note": "[Compound 30, (3S)-6-fluoro-4-{[3-(methoxymethyl)oxetan-3-yl]carbonyl}-3-methyl-8-[5-(trifluoromethyl)-1,2,4-oxadiazol-3-yl]-3,5-dihydro-2H-1,4-benzoxazepine]", "IC50": "< 200"}, {"molecule": "COCC1(C(=O)N2Cc3c(F)cc(-c4noc(C(F)(F)F)n4)cc3OC[C@@H]2C)CC1", "note": "[Compound 31, (3S)-6-fluoro-4-{[1-(methoxymethyl)cyclopropyl]carbonyl}-3-methyl-8-[5-(trifluoromethyl)-1,2,4-oxadiazol-3-yl]-3,5-dihydro-2H-1,4-benzoxazepine]", "IC50": "200 to 500"}, {"molecule": "CC1(C(=O)N2Cc3ccc(-c4noc(C(F)(F)F)n4)cc3OC[C@@H]2C2CC2)CCOCC1", "note": "[Compound 32, (3S)-3-cyclopropyl-4-[(4-methyloxan-4-yl)carbonyl]-8-[5-(trifluoromethyl)-1,2,4-oxadiazol-3-yl]-3,5-dihydro-2H-1,4-benzoxazepine]", "IC50": "< 200"}]}]}
